Consider 16 molecules from ChEMBL document CHEMBL1134708, “Synthesis of analogues of the O-beta-D-ribofuranosyl nucleoside moiety of liposidomycins. Part 1: contribution of the amino group and the uracil moiety upon the inhibition of MraY” (Bioorg Med Chem Lett, 2001).

pIC50: −log10 of the molar value.

As a reminder, the pIC50 is the IC50 on a negative log10 scale, so that one unit is a factor of ten. A low value points to a high IC50.

The target of experiment [1] is T1, Phospho-N-acetylmuramoyl-pentapeptide-transferase (Escherichia coli K-12, UniProt P0A6W3).
T1 sequence (P0A6W3 whole entry): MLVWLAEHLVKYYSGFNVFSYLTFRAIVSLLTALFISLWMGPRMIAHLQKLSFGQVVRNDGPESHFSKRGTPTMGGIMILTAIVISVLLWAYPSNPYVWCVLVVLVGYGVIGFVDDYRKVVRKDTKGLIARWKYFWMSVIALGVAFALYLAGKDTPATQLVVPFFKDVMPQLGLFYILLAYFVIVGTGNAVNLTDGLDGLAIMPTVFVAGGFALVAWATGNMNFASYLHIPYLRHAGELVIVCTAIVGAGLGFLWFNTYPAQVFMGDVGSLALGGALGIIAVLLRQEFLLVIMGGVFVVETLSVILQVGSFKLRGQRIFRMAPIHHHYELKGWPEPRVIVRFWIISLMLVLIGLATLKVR
The experiment is described as follows: Inhibition of Escherichia coli Translocase (mraY).

Experiment [2] addresses T1, Phospho-N-acetylmuramoyl-pentapeptide-transferase. Briefly: Inhibition of Translocase (mraY) at >1000 uM (No activity).

Consider `N=C(N)NC[C@H]1O[C@@H](OC[C@H]2O[C@@H](n3ccc(=O)[nH]c3=O)[C@H](O)[C@@H]2O)[C@H](O)[C@@H]1O`, for which the pIC50 in experiment [1] is 4.60.
In experiment [1], `NC[C@H]1O[C@@H](OC(CO)[C@H]2O[C@@H](n3ccc(=O)[nH]c3=O)[C@H](O)[C@@H]2O)[C@H](O)[C@@H]1O` (stereo partly specified) had a pIC50 of 5.30.
The same measure, in the same setting: the same measure for `CC(=O)NC[C@H]1O[C@@H](OC[C@H]2O[C@@H](n3ccc(=O)[nH]c3=O)[C@H](O)[C@@H]2O)[C@H](O)[C@@H]1O`: < 3.00.
The same measure, in the same setting: for `CCNC[C@H]1O[C@@H](OC[C@H]2O[C@@H](n3ccc(=O)[nH]c3=O)[C@H](O)C2O)[C@H](O)C1O` (single isomer, unassigned) the value was 3.82; for `N=CNC[C@H]1O[C@@H](OC[C@H]2O[C@@H](n3ccc(=O)[nH]c3=O)[C@H](O)C2O)[C@H](O)C1O` (single isomer, unassigned), 4.52.
With `Cn1c(=O)ccn([C@@H]2O[C@H](CO[C@@H]3O[C@H](CN)C(O)[C@H]3O)C(O)[C@H]2O)c1=O` (single isomer, unassigned), in experiment [2], the IC50 result is given as “Not Active”.
In the case of `CN(C)C[C@H]1O[C@@H](OC[C@H]2O[C@@H](n3ccc(=O)[nH]c3=O)[C@H](O)C2O)[C@H](O)C1O` (single isomer, unassigned), in experiment [1], the pIC50 was < 3.00.
For the molecule `NC[C@H]1O[C@@H](OC[C@H]2O[C@@H](N3CCC(=O)NC3=O)[C@H](O)C2O)[C@H](O)C1O` (single isomer, unassigned), the IC50 result in experiment [2] is reported as “Not Active”.
For `O=CNC[C@H]1O[C@@H](OC[C@H]2O[C@@H](n3ccc(=O)[nH]c3=O)[C@H](O)C2O)[C@H](O)C1O` (single isomer, unassigned), in experiment [1], the negative logarithm of the IC50 (pIC50) was < 3.00.
The same measure, in the same setting: the same measure for `CC(C)NC[C@H]1O[C@@H](OC[C@H]2O[C@@H](n3ccc(=O)[nH]c3=O)[C@H](O)C2O)[C@H](O)C1O` (single isomer, unassigned): 3.74; for `CCCNC[C@H]1O[C@@H](OC[C@H]2O[C@@H](n3ccc(=O)[nH]c3=O)[C@H](O)C2O)[C@H](O)C1O` (single isomer, unassigned): 3.85; for `NC[C@H]1O[C@@H](OC[C@H]2O[C@@H](n3ccc(=O)[nH]c3=O)[C@H](O)C2O)[C@H](O)C1O` (single isomer, unassigned): 4.30.
Same read-out and setting: the same measure for `CNC[C@H]1O[C@@H](OC[C@H]2O[C@@H](n3ccc(=O)[nH]c3=O)[C@H](O)C2O)[C@H](O)C1O` (single isomer, unassigned): 4.35.
With `CCCCCCNC[C@H]1O[C@@H](OC[C@H]2O[C@@H](n3ccc(=O)[nH]c3=O)[C@H](O)C2O)[C@H](O)C1O` (single isomer, unassigned), the pIC50 in experiment [1] is 3.89.
Same read-out and setting: the same measure for `C[N+](C)(C)C[C@H]1O[C@@H](OC[C@H]2O[C@@H](n3ccc(=O)[nH]c3=O)[C@H](O)C2O)[C@H](O)C1O` (single isomer, unassigned): < 3.00; for `O=c1ccn([C@@H]2O[C@H](CO[C@@H]3O[C@H](CO)C(O)[C@H]3O)C(O)[C@H]2O)c(=O)[nH]1` (single isomer, unassigned): < 3.00.
